Experimental data: the supplement of paper PMC10307832

How the values were obtained:
Test in all cases: relative viability (nuclei count vs DMSO), 5 days (fraction); higher = more cells survive
[1] = compound: Nc1ccccc1NC(=O)c1ccc(CNC(=O)OCc2cccnc2)cc1 [Entinostat] + N=C(N)NC(=N)NCCc1ccccc1 [Phenformin] (partner 250 µM)
Summary of the method: (§1)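 Values are medians from duplicate plates. Each reflects relative viability, defined as the nuclei count of treated wells over that of vehicle wells. Lung cancer cell lines in 1536-well plates were pin-tool dosed one day after seeding with one drug alone or with a fixed anchor-drug dose plus five library-drug doses (not always all listed) in √10 steps, then fixed, stained and imaged at 4× after 5 days.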

[2] = compound: CN1CCC(CNc2ccc3ncc(-c4cccc(OC(F)(F)F)c4)n3n2)CC1 [SGI-1776] + Cc1nc(Nc2ncc(C(=O)Nc3c(C)cccc3Cl)s2)cc(N2CCN(CCO)CC2)n1 [Dasatinib] (partner 0.075 µM)
Summary of the method: as §1

[3] = compound: Nc1ccccc1NC(=O)c1ccc(CNC(=O)OCc2cccnc2)cc1 [Entinostat] + CS(=O)(=O)CCNCc1ccc(-c2ccc3ncnc(Nc4ccc(OCc5cccc(F)c5)c(Cl)c4)c3c2)o1 [Lapatinib] (partner 2 µM)
Summary of the method: as §1

[4] = compound: C1COCCN1C2=NC(=NC3=C2OC4=C3C=CC=N4)C5=CC(=CC=C5)NC(=O)C6=CN=C(C=C6)N + Cc1nc(Nc2ncc(C(=O)Nc3c(C)cccc3Cl)s2)cc(N2CCN(CCO)CC2)n1 [Dasatinib] (partner 0.075 µM)
Summary of the method: as §1

Cell Line	relative viability ([1]; first compound 0.02 µM)	relative viability ([1]; first compound 0.06325 µM)	relative viability ([1]; first compound 0.2 µM)	relative viability ([1]; first compound 0.6325 µM)	relative viability ([1]; first compound 2 µM)	relative viability ([2]; first compound 0.08 µM)	relative viability ([2]; first compound 0.8 µM)	relative viability ([2]; first compound 2.53 µM)	relative viability ([2]; first compound 8 µM)	relative viability ([3]; first compound 0.02 µM)	relative viability ([3]; first compound 0.06325 µM)	relative viability ([3]; first compound 0.2 µM)	relative viability ([3]; first compound 0.6325 µM)	relative viability ([3]; first compound 2 µM)	relative viability ([4]; first compound 0.02 µM)	relative viability ([4]; first compound 0.06325 µM)	relative viability ([4]; first compound 0.2 µM)	relative viability ([4]; first compound 0.6325 µM)	relative viability ([4]; first compound 2 µM)
NCI-H1437	0.288	0.261	0.199	0.197	0.215	0.335	0.427	0.298	0.242	0.671	0.399	0.297	0.183	0.126	0.33	0.431	0.272	0.385	0.264
EKVX	0.225	0.243	0.227	0.222	0.205	0.475	0.547	0.599	0.413	0.254	0.219	0.209	0.161	0.153	0.593	0.584	0.513	0.463	0.571
NCI-H460	0.511	0.479	0.298	0.0601	0.0314	0.52	0.543	0.508	0.299	1	0.761	0.462	0.0242	0.0172	0.521	0.361	0.417	0.414	0.185
NCI-H1993	0.489	0.579	0.495	0.536	0.563	0.584	0.651	0.55	0.528	0.749	0.911	0.867	0.728	0.69	0.553	0.552	0.594	0.572	0.492
HCC-78	0.819	0.751	0.55	0.329	0.27	0.416	0.455	0.369	0.366	0.829	0.702	0.33	0.169	0.169	0.406	0.449	0.456	0.345	0.403
NCI-H2087	0.425	0.474	0.416	0.319	0.168	0.782	1.09	0.826	0.595	1.03	0.792	0.861	0.536	0.54	0.942	0.913	0.799	0.845	0.441
H3255	0.378	0.376	0.272	0.316	0.267	0.4	0.371	0.378	0.277	0.21	0.309	0.161	0.145	0.156	0.358	0.362	0.35	0.295	0.315
NCI-H2126	0.53	0.512	0.535	0.452	0.363	0.642	0.635	0.481	0.434	0.794	0.78	0.759	0.421	0.385	0.691	0.587	0.528	0.507	0.551
LCLC-103H	0.36	0.379	0.331	0.265	0.229	0.527	0.479	0.535	0.432						0.433	0.468	0.479	0.514	0.344
RERF-LC-KJ	0.433	0.437	0.422	0.339	0.312	0.803	0.688	0.7	0.447	0.775	0.794	0.816	0.476	0.321	0.944	1	0.79	0.713	0.559
EBC-1										0.213	0.211	0.208	0.181	0.184					
HCC-15	0.491	0.461	0.453	0.246	0.175	0.577	0.551	0.466	0.382	0.866	0.779	0.726	0.345	0.288	0.677	0.612	0.567	0.561	0.476
NCI-H1650	0.54	0.498	0.49	0.419	0.256	0.372	0.292	0.208	0.171	0.79	0.897	0.888	0.521	0.329	0.336	0.29	0.287	0.278	0.248
COR-L 105	0.499	0.561	0.45	0.411	0.23	0.343	0.323	0.284	0.254	0.362	0.357	0.358	0.328	0.34	0.307	0.363	0.22	0.308	0.284
NCI-H596	0.752	0.74	0.823	0.734	0.554	0.571	0.528	0.51	0.441	1.06	1.13	1.07	0.81	0.709	0.607	0.621	0.545	0.739	0.5
LXF-289	0.538	0.554	0.532	0.414	0.354	0.222	0.224	0.148	0.161	0.884	0.916	0.841	0.647	0.481	0.228	0.249	0.219	0.17	0.175
NCI-H1703										1.22	1.17	1.59	1.05	0.453					
NCI-H2170	0.466	0.407	0.444	0.376	0.297	0.651	0.527	0.354	0.434	0.289	0.3	0.304	0.244	0.216	0.561	0.507	0.551	0.538	0.618
NCI-H522	0.69	0.572	0.695	0.801	0.577	0.828	0.849	0.843	0.729						0.936	0.983	0.899	0.877	0.837
LOU-NH91	0.746	0.773	0.75	0.706	0.55	0.571	0.597	0.555	0.43	0.781	0.848	0.769	0.765	0.561	0.537	0.546	0.587	0.56	0.357

Cell Line	relative viability ([1]; first compound 0.02 µM)	relative viability ([1]; first compound 0.06325 µM)	relative viability ([1]; first compound 0.2 µM)	relative viability ([1]; first compound 0.6325 µM)	relative viability ([1]; first compound 2 µM)	relative viability ([2]; first compound 0.08 µM)	relative viability ([2]; first compound 0.8 µM)	relative viability ([2]; first compound 2.53 µM)	relative viability ([2]; first compound 8 µM)	relative viability ([3]; first compound 0.02 µM)	relative viability ([3]; first compound 0.06325 µM)	relative viability ([3]; first compound 0.2 µM)	relative viability ([3]; first compound 0.6325 µM)	relative viability ([3]; first compound 2 µM)	relative viability ([4]; first compound 0.02 µM)	relative viability ([4]; first compound 0.06325 µM)	relative viability ([4]; first compound 0.2 µM)	relative viability ([4]; first compound 0.6325 µM)	relative viability ([4]; first compound 2 µM)
NCI-H1355	0.48	0.439	0.502	0.368	0.332	0.778	0.722	0.52	0.604	1.03	0.978	0.798	0.568	0.513	0.755	0.79	0.71	0.659	0.5
NCI-H322M	0.799	0.963	0.99	0.809	0.664	0.27	0.252	0.208	0.252	0.643	0.612	0.623	0.647	0.621	0.251	0.251	0.241	0.274	0.234
NCI-H1395	0.441	0.494	0.421	0.417	0.416	0.381	0.379	0.394	0.373	1.1	1.21	0.901	0.566	0.569	0.388	0.359	0.394	0.353	0.369
NCI-H2023	0.355	0.407	0.327	0.162	0.0942	0.637	0.523	0.432	0.254	0.633	0.585	0.261	0.129	0.0771	0.632	0.648	0.47	0.484	0.251
NCI-H1666	0.56	0.609	0.581	0.497	0.443	0.822	0.791	0.75	0.711	0.624	0.564	0.566	0.282	0.264	0.865	0.761	0.658	0.632	0.517
HARA	0.459	0.441	0.494	0.364	0.277	0.31	0.178	0.207	0.289	0.792	0.872	0.786	0.671	0.374	0.32	0.265	0.216	0.23	0.221
NCI-H1944	0.193	0.182	0.168	0.13	0.142	0.223	0.2	0.223	0.173	0.851	0.768	0.787	0.354	0.271	0.201	0.211	0.206	0.215	0.207
NCI-H2405	0.392	0.462	0.414	0.352	0.358	0.225	0.195	0.178	0.166	1.16	1.42	1.08	1.04	0.625	0.209	0.229	0.223	0.215	0.213
201T	0.46	0.414	0.451	0.382	0.303	0.603	0.555	0.47	0.471	1.02	1.03	0.959	0.937	0.665	0.55	0.558	0.606	0.57	0.579
PC-3 [JPC-3]	0.449	0.482	0.523	0.449	0.448	1.1	0.961	0.977	0.857	0.448	0.451	0.397	0.348	0.302	1.18	1.08	1.02	0.818	0.629
Calu-6										1.09	0.967	0.963	0.698	0.498					
NCI-H2342	0.6	0.639	0.518	0.584	0.468	0.364	0.326	0.289	0.301						0.296	0.306	0.283	0.327	0.301
ChaGo-K-1	0.607	0.471	0.567	0.456	0.462	0.652	0.647	0.561	0.416						0.555	0.625	0.605	0.508	0.522
IA-LM										0.892	0.926	1.17	0.601	0.514					
NCI-H1299										0.927	0.933	0.956	0.805	0.571					
NCI-H1623	0.663	0.623	0.556	0.489	0.422	0.658	0.608	0.559	0.538						0.516	0.469	0.516	0.527	0.498
HCC-44	0.204	0.197	0.129	0.11	0.0548					1	0.88	0.7	0.258	0.311					
SW 900	0.653	0.759	0.686	0.369	0.306	0.542	0.387	0.56	0.301						0.54	0.538	0.613	0.518	0.448
NCI-H441	0.679	1.03	0.757	0.397	0.184	0.633	0.625	0.539	0.55						0.685	0.783	0.609	0.486	0.415
A549	0.166	0.207	0.197	0.169	0.101					1	0.956	0.92	0.755	0.481					
